Assay [1] deals with Jurkat. The assay can be described thus: Cytotoxic activity against Jurkat cells upto 500 ug/mL by MTT assay. The format is functional, cell-based. The conditions noted are these: Homo sapiens.
For assay [2], the system named is Jurkat. The assay can be described thus: Inhibition of anti-CD3 plus anti-CD28-induced IL2 secretion in Jurkat cells. In kind it is functional, Homo sapiens.
The test system of assay [3] is Jurkat. The assay can be described thus: Inhibition of PMA plus ionomycin-induced IL2 secretion in Jurkat cells. The format is functional, cell-based. The conditions noted are these: Homo sapiens.

Calls of active or inactive are those of the source. The rule behind the calls is not given here.

Consider 1 compound from ChEMBL document CHEMBL1138157, “Immuno-suppressive effect of blocking the CD28 signaling pathway in T-cells by an active component of Echinacea found by a novel pharmaceutical screening method” (2006).

By Inhibition is commonly meant the drop in the measured response relative to a control, in per cent.

As to `O=C(/C=C/c1ccc(O)c(O)c1)O[C@@H]1C[C@@](OC(=O)/C=C/c2ccc(O)c(O)c2)(C(=O)O)C[C@@H](O)[C@@H]1O` [CYNARIN], the Activity entry in assay [1] is “Non-toxic”. In addition, the Inhibition in assay [2] is listed as -53%. In addition, the result in assay [3] was inactive.
